# Patent US12679807B2 (MERCK SHARP & DOHME LLC, priority 2020, dated 2026)
# Biological target: T1, GCS enzyme contained within Golgi preparations isolated from human A375 malignant melanoma skin cells (Homo sapiens, UniProt Q16739)
# T1 construct: endogenous levels of GCS enzyme contained within Golgi preparations isolated from human A375 malignant melanoma skin cells; endogenous in cells; host or cells: A375 human malignant melanoma cells (crude Golgi preparation)
# T1 sequence (Q16739 1-394): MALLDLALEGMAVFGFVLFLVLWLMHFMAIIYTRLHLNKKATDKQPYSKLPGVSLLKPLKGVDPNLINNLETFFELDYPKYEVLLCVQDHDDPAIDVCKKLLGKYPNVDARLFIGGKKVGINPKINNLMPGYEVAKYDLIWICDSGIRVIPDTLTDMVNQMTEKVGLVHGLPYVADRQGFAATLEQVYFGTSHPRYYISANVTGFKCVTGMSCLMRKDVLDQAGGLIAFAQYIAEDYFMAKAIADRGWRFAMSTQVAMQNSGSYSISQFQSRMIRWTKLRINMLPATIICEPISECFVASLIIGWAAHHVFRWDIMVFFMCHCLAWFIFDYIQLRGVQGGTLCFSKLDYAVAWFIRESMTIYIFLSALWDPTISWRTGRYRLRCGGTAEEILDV
# Assay: UDP-Glo glucosylceramide synthase biochemical assay
# Details: crude Golgi preparation from A375 cells; C6 ceramide and UDP-glucose substrates; 20 h incubation at room temperature; UDP detected by luminescence
# Excerpt: UDP-Glo™ Glucosylceramide Synthase Biochemical Assay
# A UDP-Glo™ glucosylceramide synthase biochemical assay was utilized to evaluate the effect of test compounds on the activity of endogenous levels of GCS enzyme contained within Golgi preparations isolated from human A375 malignant melanoma skin cells. The UDP-Glo™ glucosylceramide synthase assay uses UDP-Glucose as a nucleotide-glycosyl donor and ceramide as substrate acceptor molecules. In the reaction, glucosylceramide synthase (GCS) transfers glucose from UDP-Glucose to ceramide. Glucosylceramide and UDP are released as products.
# Using Promega's UDP-Glo™ Glycosyltransferase assay kit (Promega Corporation, Madison, WI, USA (Promega)), GCS activity was indirectly measured by detecting the amount of UDP produced. An aliquot of GCS enzyme (1.5 μg crude golgi preparation, total protein) and titrated test compound were aliquoted to each well and incubated for 30 minutes at room temperature. […] An equivalent volume of substrate mixture was then added to each well. Following a 20 h incubation at room temperature to allow for GCS turnover of substrate, an equal volume of UDP detection reagent (Promega) was added to each well and incubated for an additional 75 minutes at room temperature to simultaneously convert the accumulated UDP product into ATP and generate light in a luciferase reaction. The generated light was detected using a luminometer. […] luminescence values (RLUs) were normalized to mean “min” and “max” effects, as determined on each plate. […] Values for % Emax and EC50 were determined by best-fitting the normalized data to a curve in Activity Base along a four-parameter logistic nonlinear regression (4PL) model (based on the Levenberg-Marquardt algorithm and defined by the equation below):
# [formula] where: n is 4 PMin (bottom of the curve); m is 4 PMax (top of the curve); i is IP (inflection point of curve); and p is slope. See Levenberg, K., “A Method for the Solution of Certain Problems in Least Squares”, Quart. Appl. Math. […] Math.
row,Structure (SMILES),EC50 [nM]
1,"Cc1c(F)cccc1C(=O)Nc1cccc2c1C(=O)N(C(C1CC1)C(C)(C)O)C2 (single isomer, unassigned) [Compound 119, (R or S)-N-(2-(1-cyclopropyl-2-hydroxy-2-methylpropyl)-3-oxoisoindolin-4-yl)-3-fluoro-2-methylbenzamide]",7.2
2,"Cc1c(C(=O)Nc2cccc3c2C(=O)N(C(C2CC2)C(C)(C)O)C3)cccc1C(F)(F)F (single isomer, unassigned) [Compound 120, (R or S)-N-(2-(1-cyclopropyl-2-hydroxy-2-methylpropyl)-3-oxoisoindolin-4-yl)-2-methyl-3-(trifluoromethyl)benzamide]",10
3,"CC(C)(O)C(C1CC1)N1Cc2cccc(NC(=O)c3cccc4ncsc34)c2C1=O (single isomer, unassigned) [Compound 131, (R or S)-N-(2-(1-cyclopropyl-2-hydroxy-2-methylpropyl)-3-oxoisoindolin-4-yl)benzo[d]thiazole-7-carboxamide]",45
4,"COCC(C1CC1)N1Cc2cccc(NC(=O)c3ccnc4c3CCC4)c2C1=O (single isomer, unassigned) [Compound 136, (R or S)-N-(2-(1-cyclopropyl-2-methoxyethyl)-3-oxoisoindolin-4-yl)-6,7-dihydro-5H-cyclopenta[b]pyridine-4-carboxamide]",80
5,"CC(C)(O)C(C1CC1)N1Cc2cncc(NC(=O)c3ccnc4c3CCC4)c2C1=O (single isomer, unassigned) [Compound 151, (R or S)—N-(2-(1-Cyclopropyl-2-hydroxy-2-methylpropyl)-1-oxo-2,3-dihydro-1H-pyrrolo[3,4-c]pyridin-7-yl)-6,7-dihydro-5H-cyclopenta[b]pyridine-4-carboxamide]",61
6,"CC(C)(O)C(C1CC1)N1Cc2nccc(NC(=O)c3ccnc4c3CCC4)c2C1=O (single isomer, unassigned) [Compound 152, (R or S)-N-(6-(1-cyclopropyl-2-hydroxy-2-methylpropyl)-5-oxo-6,7-dihydro-5H-pyrrolo [3,4-b]pyridin-4-yl)-6,7-dihydro-5H-cyclopenta[b]pyridine-4-carboxamide]",96
7,"COc1ncc(C)c(C(=O)Nc2cccc3c2C(=O)N(C(C2CC2)C(C)(C)O)C3)c1C (single isomer, unassigned) [Compound 153, (R or S)-N-(2-(1-cyclopropyl-2-hydroxy-2-methylpropyl)-3-oxoisoindolin-4-yl)-2-methoxy-3,5-dimethylisonicotinamide]",29
8,"CC(C)(O)C(C1CC1)N1Cc2cccc(NC(=O)c3ccnc4c3CCO4)c2C1=O (single isomer, unassigned) [Compound 162, (R or S)-N-(2-(1-cyclopropyl-2-hydroxy-2-methylpropyl)-3-oxoisoindolin-4-yl)-2,3-dihydrofuro[2,3-b]pyridine-4-carboxamide]",23
9,"CC(C)(O)C(C1CC1)N1Cc2cccc(NC(=O)c3ccnc4c3OCCO4)c2C1=O (single isomer, unassigned) [Compound 163, (R or S)-N-(2-(1-cyclopropyl-2-hydroxy-2-methylpropyl)-3-oxoisoindolin-4-yl)-2,3-dihydro-[1,4]dioxino[2,3-b]pyridine-8-carboxamide]",61
10,"COc1nccc(C(=O)Nc2cccc3c2C(=O)N(C(C2CC2)C(C)(C)O)C3)c1OC (single isomer, unassigned) [Compound 164, (R or S)-N-(2-(1-cyclopropyl-2-hydroxy-2-methylpropyl)-3-oxoisoindolin-4-yl)-2,3-dimethoxyisonicotinamide]",77
11,"COC(C)(C)C(C1CC1)N1Cc2cccc(NC(=O)c3ccnc4c3CCC4)c2C1=O (single isomer, unassigned) [Compound 165, (R or S)-N-(2-(1-cyclopropyl-2-methoxy-2-methylpropyl)-3-oxoisoindolin-4-yl)-6,7-dihydro-5H-cyclopenta[b]pyridine-4-carboxamide]",200
12,"CC(C)(O)C(C1CC1)N1Cc2cccc(/C=C/c3ccnc4c3CCC4)c2C1=O (single isomer, unassigned) [Compound 171, (R or S)-(E)-2-(1-Cyclopropyl-2-hydroxy-2-methylpropyl)-7-(2-(6,7-dihydro-5H-cyclopenta[b]pyridin-4-yl)vinyl)isoindolin-1-one]",230

# Now those with a lower EC50, led by results:
row,EC50 [nM],Structure (SMILES)
1,1.2,"Cc1cccc(C(=O)Nc2cccc3c2C(=O)N(C(C2CC2)C(C)(C)O)C3)c1Cl (single isomer, unassigned) [Compound 113, (R or S)-2-chloro-N-(2-(1-cyclopropyl-2-hydroxy-2-methylpropyl)-3-oxoisoindolin-4-yl)-3-methylbenzamide]"
2,1.3,"CC(C)(O)C(C1CC1)N1Cc2cccc(NC(=O)c3cccc4c3CCC4)c2C1=O (single isomer, unassigned) [Compound 114, (R or S)-N-(2-(1-cyclopropyl-2-hydroxy-2-methylpropyl)-3-oxoisoindolin-4-yl)-2,3-dihydro-1H-indene-4-carboxamide]"
3,1.5,"CC(C)(O)C(C1CC1)N1Cc2cccc(NC(=O)c3c(F)ccc(F)c3Cl)c2C1=O (single isomer, unassigned) [Compound 115, (R or S)-2-chloro-N-(2-(1-cyclopropyl-2-hydroxy-2-methylpropyl)-3-oxoisoindolin-4-yl)-3,6-difluorobenzamide]"
4,3.1,"CC(C)(O)C(C1CC1)N1Cc2cccc(NC(=O)c3cccc(F)c3C(F)(F)F)c2C1=O (single isomer, unassigned) [Compound 116, (R or S)-N-(2-(1-cyclopropyl-2-hydroxy-2-methylpropyl)-3-oxoisoindolin-4-yl)-3-fluoro-2-(trifluoromethyl)benzamide]"
5,0.1,"COc1ncc(Cl)c(C(=O)Nc2cccc3c2C(=O)N(C(C2CC2)C(C)(C)O)C3)c1C (single isomer, unassigned) [Compound 154, (R or S)-5-Chloro-N-(2-(1-cyclopropyl-2-hydroxy-2-methylpropyl)-3-oxoisoindolin-4-yl)-2-methoxy-3-methylisonicotinamide]"
6,0.19,"CC(C)(O)C(C1CC1)N1Cc2cccc(NC(=O)c3c(Cl)cnc4c3CCO4)c2C1=O (single isomer, unassigned) [Compound 155, (R or S)-5-Chloro-N-(2-(1-cyclopropyl-2-hydroxy-2-methylpropyl)-3-oxoisoindolin-4-yl)-2,3-dihydrofuro[2,3-b]pyridine-4-carboxamide]"
7,0.49,"CC(C)(O)C(C1CC1)N1Cc2cccc(NC(=O)c3c(Cl)cnc4c3OCO4)c2C1=O (single isomer, unassigned) [Compound 157, (R or S)-6-chloro-N-(2-(1-cyclopropyl-2-hydroxy-2-methylpropyl)-3-oxoisoindolin-4-yl)-[1,3]dioxolo[4,5-b]pyridine-7-carboxamide]"
8,1,"CC(C)(O)C(C1CC1)N1Cc2cccc(NC(=O)c3ccnc4c3CCC4)c2C1=O (single isomer, unassigned) [Compound 158, (R or S)-N-(2-(1-cyclopropyl-2-hydroxy-2-methylpropyl)-3-oxoisoindolin-4-yl)-6,7-dihydro-5H-cyclopenta[b]pyridine-4-carboxamide]"
9,5.9,"Cn1cc2c(C(=O)Nc3cccc4c3C(=O)N(C(C3CC3)C(C)(C)O)C4)cccc2n1 (single isomer, unassigned) [Compound 160, (R or S)-N-(2-(1-cyclopropyl-2-hydroxy-2-methylpropyl)-3-oxoisoindolin-4-yl)-2-methyl-2H-indazole-4-carboxamide]"
10,0.3,"Cc1cnc2c(c1C(=O)Nc1cccc3c1C(=O)N(C(C1CC1)C(C)(C)O)C3)CCO2 (single isomer, unassigned) [Compound 168, (R or S)—N-(2-(1-Cyclopropyl-2-hydroxy-2-methylpropyl)-3-oxoisoindolin-4-yl)-5-methyl-2,3-dihydrofuro[2,3-b]pyridine-4-carboxamide]"
11,0.4,"Cc1cnc2c(c1C(=O)Nc1cccc3c1C(=O)N(C(C1CC1)C(C)(C)O)C3)OCO2 (single isomer, unassigned) [Compound 169, (R or S)—N-(2-(1-Cyclopropyl-2-hydroxy-2-methylpropyl)-3-oxoisoindolin-4-yl)-6-methyl-[1,3]dioxolo[4,5-b]pyridine-7-carboxamide]"
